Measured values: patent publication US20230055457A1, “CELL EXPANSION METHODS FOR PREVENTING CELL SENESCENCE AND PRESERVING THE THERAPEUTIC POTENCY OF HUMAN MESENCHYMAL STEM CELLS” (THE FLORIDA STATE UNIVERSITY RESEARCH FOUNDATION, INC., priority 2020, published 2023)
Entries after “also recorded” stand apart in the source; their conditions may differ.

Tests used:
[1] = system: senescent hMSCs; experiment: Cellular senescence by SA-β-Gal activity assay; assay type: cell-based, human; settings: senescent hMSCs with NAM treatment
Experimental: Cellular senescence was evaluated by SA-β-Gal activity assay kit (Sigma, St. Louis, Mo.) as described in manufacture instructions.

[2] = system: senescent hMSCs; experiment: Mitochondrial membrane potential (MMP), TMRM flow cytometry; assay type: cell-based, human; settings: senescent hMSCs with NAM treatment
Experimental: For MMP measurement, trypsinized MSCs were washed by centrifugation in warm Hank's Balanced Salt Solution (HBSS). Cell suspension was incubated with tetramethylrhodamine, methyl ester (TMRM) (Molecular Probe, Eugene, Oreg.) at 37° C., washed with HBSS, and analyzed by flow cytometry (BD Biosciences, San Jose, Calif.).

[3] = system: electron transport chain complex I; experiment: Mitochondrial complex I (ETC-I) activity; assay type: cell-based, human; settings: senescent hMSCs with NAM treatment
Experimental: hMSCs were centrifuged, re-suspended in DI water, and heated immediately in a boiling water bath for 15 minutes. The mixture was centrifuged and ATP containing supernatant was collected. Upon measurement, 10 μL of ATP solution was mixed with 100 μL of the luciferin-luciferase reagent, and the bioluminescent signal was measured using an Orion Microplate Luminometer (Bad Wildbad, Deutschland) after 15 min incubation at room temperature. Activity of mitochondrial complex I was determined using the Complex I Enzyme Activity Microplate Assay Kit (Abcam, Cambridge, Mass.) according to the kit instructions.

[4] = system: senescent hMSCs; experiment: Intracellular NAD+ and NADH level of hMSCs; assay type: cell-based, human
Experimental: (§1) hMSCs at passage 2 were expanded and cultured in complete culture medium(CCM). Cells were grown to 70-80% confluence and then harvested by incubation with 0.25% trypsin/EDTA. Harvested cells were re-plated at a density of 2,000 cells/cm^2 and sub-cultured up to Passage 12 in a standard CO2 incubator. hMSC sat Passage 5 (P5) and passage 12 (P12) were used for experiments. Stem cell properties including senescence, stem cell gene, cell cycle, proliferation rate were determined. Gas chromatography-mass spectrometry (GC-MS) and seahorse flux analyzer were used for characterization of energy metabolism phenotype. Mitochondrial functions were assessed by mitochondrial mass, membrane potential, electron transport complex activity and biogenesis. NAD+/NADH and Sirt-1 and -3 level was also measured in P5 and P12 hMSCs. NAD+ precursor nicotinamide (NAM) was used in CCM to adjust NAD+ level intracellularly.

[5] = system: senescent hMSCs; experiment: Colony forming unit-fibroblast (CFU-F) assay; assay type: cell-based, human; settings: senescent hMSCs with NAM treatment
Experimental: Colony forming unit-fibroblast (CFU-F) were determined as following: hMSCs were harvested and re-plated at the density of 15 cells/cm2 on 60 cm2 culture dish and cultured for another 14 days in CCM. Cells were then stained with 20% crystal violet solution in methanol for 15 minutes at room temperature (RT) and washed with phosphate-buffered saline (PBS) wash, the numbers of individual colonies were counted manually.

[6] = system: senescent hMSCs; experiment: Basal autophagy by Cyto-ID Green flow cytometry; assay type: cell-based, human; settings: senescent hMSCs with NAM treatment
Experimental: (§2) For autophagy measurement, aliquots of cell suspension were incubated with 20 μM Cyto-ID Green (Enzo Life Sciences, Farmingdale, N.Y.), a fluorescent dye that selectively labels accumulated autophagic vacuoles, at 37° C. for 30 minutes, and analyzed by flow cytometry (BD Biosciences, San Jose, Calif.). For mitophagy measurement, […]

[7] = system: senescent hMSCs; experiment: Mitophagy measurement; assay type: cell-based, human; settings: senescent hMSCs with NAM treatment
Experimental: as §2

[8] = system: hMSC; experiment: Mitochondrial fitness of hMSCs; assay type: cell-based, human
Experimental: as §1

[9] = system: muscle stem cells (muscle-SCs) and hematopoietic stem cells (HSC); settings: aged muscle-SCs and HSCs, restoring autophagy; cited from earlier work
[10] = continuous supplement of NAM (1 mM), FIG. 17

Structure (SMILES): NC(=O)c1cccnc1 [NAM, nicotinamide]
- hMSC senescence, SA-β-gal activity [1]: decreased; also recorded: reduced
- mitochondrial membrane potential (MMP) [2]: enhanced; also recorded: increased
- ETC-I activity [3]: enhanced; also recorded: increased
- hMSC cellular NAD+ level [4, 10]: maintains
- Cellular NAD+ level ([4]; late passage hMSCs with culture-induced senescence, 96 h of NAM treatment): significantly increased; also recorded: potential improvement
- boosting intracellular NAD+ level, NAM compared to NMN ([4]; stem cells in culture, FIG. 16): better
- boosting intracellular NAD+ level, NAM compared with NR ([4]; stem cells in culture, FIG. 16): no significant difference
- colony forming ability ([5]; in words): improved
- colony forming ability of hMSCs (CFU-F) ([5]; control 3 CFU): 11 CFU
- Basal autophagy level [6]: restored; also recorded: increased
- mitophagy [7]: restored; also recorded: increased
- mitochondrial fitness [8, 10]: maintains
- recovery of mitochondria ([8]; senescent hMSCs, supplement of NAM): recovery

Structure (SMILES): NC(=O)c1ccc[n+]([C@@H]2O[C@H](COP(=O)([O-])O)[C@@H](O)[C@H]2O)c1 [NMN, nicotinamide mononucleotide]
- boosting intracellular NAD+ level, NAM compared to NMN ([4]; stem cells in culture, FIG. 16): NAM is better

Structure (SMILES): NC(=O)c1ccc[n+]([C@@H]2O[C@H](CO)[C@@H](O)[C@H]2O)c1 [NR, nicotinamide riboside]
- boosting NAD+/NADH ratio, NAM compared with NR ([4]; stem cells in culture, FIG. 16): no significant difference
- boosting intracellular NAD+ level, NAM compared with NR ([4]; stem cells in culture, FIG. 16): no significant difference

Structure (SMILES): NCCCCNCCCN [spermidine]
- stem cell functions in vivo [9]: restored
